Assay results taken from patent publication US11780893B2, “Kv1.3 blockers” (Zealand Pharma A/S, priority 2019, dated 2023).
Where two headings read alike, the source gives them in different places. Bridge positions count the residues as written; N and C are the ends. Peptide text beside a SMILES is read from it.

How the values were obtained:
[1] = molecular target: Rat whole blood (Rattus norvegicus, UniProt P15384)
[2] = in vivo; conditions: male, rat, sc, 70 nmol/kg
[3] = tested on: Human peripheral blood mononuclear cells (PBMCs); test: IL-2 release from anti-CD3 stimulated human PBMCs (Example 4b); assay type: cell-based; conditions: geometric mean, at least 6 replicates, read-out: anti-CD3 PBMC/IL-2 IC50
Method: Human peripheral blood mononuclear cells (PBMCs) were used to assess the effects of Kv1.3 blockers on T-cell activation as determined by IL-2 release after stimulation with anti-CD3.
Human PBMCs were obtained from Precision for Medicine (Frederick, Md.). Cells from 5 donors were used. Plate-bound anti-CD3 was used to stimulate bulk T cells in the PBMC preparations. Briefly, 96-well plates were coated with anti-CD3 antibody for app. 16 hours at 5° C., using 50 μl of a 1 μg/ml anti-CD3 solution diluted in PBS. Thereafter the plates were washed twice.
Kv1.3 blockers were subsequently diluted in medium (RPMI 1640 with Glutamax-I containing, 10% v/v Fetal Bovine Serum, 1% v/v penicillin-streptomycin Solution) and added in a volume of 50 μl. The compounds indicated in Table 4b were used at concentrations ranging from […] to 1000 nM (half log dilutions, starting concentrations varying).
Finally, 50.000 PBMCs in the same medium were added to each well in a volume of 50 μl, giving a final volume of 100 μl per well. The plates were incubated for 20-24 hours in a 37° C./5% CO2 incubator. After centrifugation of the plates, 25 μl supernatant was transferred to IL-2 detection plates (MSD Human IL-2 Tissue Culture Kit, cat #K151AHB-2) and IL-2 was measures as described by the manufacturer (Meso Scale Discovery, Rockville, Md., USA).
Results are shown in Table 4b as geometric mean of IC50 values obtained from anti-CD3 stimulated human PBMC assays. All values derive from at least 6 replicates.

[4] = molecular target: T1, Kv1.2 (Homo sapiens, UniProt P16389); test: cell-based; conditions: CHO cells, whole-cell patch clamp; read-out: Potency IC50 (nM) Kv1.2
T1 construct: expressed in transfected cells; host or cells: Chinese Hamster Ovary (CHO)

[5] = molecular target: T2, Kv1.6 (Homo sapiens, UniProt P17658); test: cell-based
T2 construct: expressed in transfected cells; host or cells: Chinese Hamster Ovary (CHO)

[6] = molecular target: T3, Kv1.3 (Homo sapiens, UniProt P22001); test: cell-based; conditions: CHO cells, whole-cell patch clamp; read-out: Potency IC50 (nM) Kv1.3
T3 construct: expressed in transfected cells; host or cells: Chinese Hamster Ovary (CHO)

[7] = molecular target: T4, Kv1.1 (Homo sapiens, UniProt Q09470); test: cell-based
T4 construct: expressed in transfected cells; host or cells: Chinese Hamster Ovary (CHO)

[8] = molecular target: T5, human Kv1.3 voltage-gated K+ channel (Homo sapiens, UniProt P22001); test: cell-based; conditions: inhibition of thallium flux, CHO-DUKX cells with human Kv1.3; read-out: IC50
T5 construct: host or cells: CHO-DUKX

[9] = tested on: delayed-type hypersensitivity (DTH) ear swelling response; assay type: in vivo, rat; conditions: CsA 10 mg/kg per os, +/- SD

T4 sequence (Q09470 whole entry): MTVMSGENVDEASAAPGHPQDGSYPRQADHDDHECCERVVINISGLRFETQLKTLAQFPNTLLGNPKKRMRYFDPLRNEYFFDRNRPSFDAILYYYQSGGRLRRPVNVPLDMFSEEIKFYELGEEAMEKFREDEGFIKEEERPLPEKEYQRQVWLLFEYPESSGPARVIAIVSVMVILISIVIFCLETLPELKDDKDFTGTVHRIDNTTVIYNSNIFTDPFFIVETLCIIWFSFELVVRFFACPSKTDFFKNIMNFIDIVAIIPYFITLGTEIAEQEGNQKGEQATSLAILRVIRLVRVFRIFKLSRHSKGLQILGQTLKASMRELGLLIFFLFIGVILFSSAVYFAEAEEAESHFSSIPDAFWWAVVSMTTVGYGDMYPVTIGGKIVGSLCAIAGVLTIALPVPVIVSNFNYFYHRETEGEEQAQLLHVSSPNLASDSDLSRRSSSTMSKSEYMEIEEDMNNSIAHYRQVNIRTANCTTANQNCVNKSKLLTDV
T2 sequence (P17658 whole entry): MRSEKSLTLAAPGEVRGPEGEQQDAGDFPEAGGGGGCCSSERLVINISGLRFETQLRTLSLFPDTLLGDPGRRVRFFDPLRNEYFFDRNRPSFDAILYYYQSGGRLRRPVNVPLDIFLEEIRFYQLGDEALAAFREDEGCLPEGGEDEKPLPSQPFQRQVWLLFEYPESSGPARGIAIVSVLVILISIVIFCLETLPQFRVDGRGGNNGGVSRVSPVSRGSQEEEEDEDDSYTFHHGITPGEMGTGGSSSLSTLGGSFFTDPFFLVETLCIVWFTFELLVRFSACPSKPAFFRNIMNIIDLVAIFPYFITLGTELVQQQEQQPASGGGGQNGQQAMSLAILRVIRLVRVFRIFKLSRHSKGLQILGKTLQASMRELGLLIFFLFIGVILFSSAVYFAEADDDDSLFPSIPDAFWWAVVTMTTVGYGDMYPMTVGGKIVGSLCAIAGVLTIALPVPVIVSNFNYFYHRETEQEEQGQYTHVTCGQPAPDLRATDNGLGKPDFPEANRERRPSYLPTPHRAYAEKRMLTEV
T5 sequence (P22001 whole entry): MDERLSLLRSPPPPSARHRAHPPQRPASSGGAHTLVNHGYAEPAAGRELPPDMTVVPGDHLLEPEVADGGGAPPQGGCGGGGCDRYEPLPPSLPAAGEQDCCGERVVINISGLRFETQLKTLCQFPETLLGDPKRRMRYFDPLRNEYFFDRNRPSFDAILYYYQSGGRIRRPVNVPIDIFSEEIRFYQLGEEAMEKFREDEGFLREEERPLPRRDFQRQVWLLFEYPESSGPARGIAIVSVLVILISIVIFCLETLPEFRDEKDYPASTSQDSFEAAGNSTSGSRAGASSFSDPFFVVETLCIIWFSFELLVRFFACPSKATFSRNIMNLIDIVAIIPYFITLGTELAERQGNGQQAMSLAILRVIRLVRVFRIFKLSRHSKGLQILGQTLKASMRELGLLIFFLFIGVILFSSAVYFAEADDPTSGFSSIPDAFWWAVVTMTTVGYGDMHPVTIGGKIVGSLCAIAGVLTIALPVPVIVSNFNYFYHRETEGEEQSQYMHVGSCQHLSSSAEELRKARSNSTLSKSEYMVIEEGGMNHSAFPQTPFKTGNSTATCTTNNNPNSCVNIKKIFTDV
T3 sequence (P22001 whole entry): as above
Chain of Rat whole blood (P15384 whole entry): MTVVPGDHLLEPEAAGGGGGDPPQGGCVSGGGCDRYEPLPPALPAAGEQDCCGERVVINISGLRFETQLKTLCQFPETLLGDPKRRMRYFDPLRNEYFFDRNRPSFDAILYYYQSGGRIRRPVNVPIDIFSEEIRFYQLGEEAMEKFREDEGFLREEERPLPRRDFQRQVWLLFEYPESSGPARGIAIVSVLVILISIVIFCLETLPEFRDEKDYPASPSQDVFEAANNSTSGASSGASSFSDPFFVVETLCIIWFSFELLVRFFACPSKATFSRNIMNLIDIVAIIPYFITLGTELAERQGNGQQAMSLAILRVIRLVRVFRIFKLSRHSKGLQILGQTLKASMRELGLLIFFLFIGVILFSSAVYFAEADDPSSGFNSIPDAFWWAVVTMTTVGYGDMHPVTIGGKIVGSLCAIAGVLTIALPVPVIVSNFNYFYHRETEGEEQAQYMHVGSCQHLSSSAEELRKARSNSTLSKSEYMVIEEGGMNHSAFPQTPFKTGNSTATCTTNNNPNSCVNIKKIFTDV
T1 sequence (P16389 whole entry): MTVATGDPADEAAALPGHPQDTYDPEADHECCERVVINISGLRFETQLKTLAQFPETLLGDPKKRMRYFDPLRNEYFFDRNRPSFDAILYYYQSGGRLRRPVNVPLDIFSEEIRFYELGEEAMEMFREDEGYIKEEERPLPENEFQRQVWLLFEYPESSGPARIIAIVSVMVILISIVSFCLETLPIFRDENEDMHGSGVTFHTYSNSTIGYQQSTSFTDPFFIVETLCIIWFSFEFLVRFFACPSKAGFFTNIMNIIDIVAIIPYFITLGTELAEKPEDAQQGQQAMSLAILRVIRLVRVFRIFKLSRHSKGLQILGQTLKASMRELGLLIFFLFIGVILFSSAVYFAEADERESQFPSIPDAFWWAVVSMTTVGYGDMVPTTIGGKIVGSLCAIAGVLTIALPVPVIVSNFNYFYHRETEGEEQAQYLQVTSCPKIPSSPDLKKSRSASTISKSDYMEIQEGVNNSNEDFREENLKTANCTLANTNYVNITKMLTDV

With `CC[C@H](C)[C@@H]1NC(=O)[C@H](C)NC(=O)[C@H](CCCCN)NC(=O)[C@H](CC(C)C)NC(=O)[C@@H]2CSSC[C@@H](C(=O)N[C@@H](Cc3ccc(O)cc3)C(=O)N3CCC[C@H]3C(=O)N[C@@H](CCCNC(=N)N)C(=O)O)NC(=O)[C@H](CCCCN)NC(=O)[C@@H]3CSSC[C@H](NC(=O)[C@H](CCC(=O)O)NC(=O)[C@H](C(C)C)NC(=O)[C@H](CO)NC(=O)[C@H](C)NC(=O)[C@H](CO)NC(=O)[C@@H](NC(=O)[C@H](CCCNC(=N)N)NC(=O)[C@H](CCSC)NC(=O)[C@H](CC(=O)O)NC(=O)[C@H](CCSC)NC(=O)[C@@H](N)CC(N)=O)CSSC[C@H](NC(=O)[C@H](CCCCN)NC(=O)CNC(=O)[C@H](Cc4ccccc4)NC(=O)[C@H]([C@@H](C)CC)NC(=O)[C@H](CO)NC(=O)CNC1=O)C(=O)N[C@@H](CCSC)C(=O)N[C@@H](CC(N)=O)C(=O)N[C@@H](CCCCN)C(=O)N[C@@H](CCCCN)C(=O)N3)C(=O)N[C@@H](CCCCN)C(=O)N[C@@H](CCC(N)=O)C(=O)N[C@@H](CCCCN)C(=O)N2` [Compound 3] (H-NMDMRCSASVECKQKCLKAIGSIFGKCMNKKCKCYPR-OH; disulfide 6-27, 12-32, 16-34) the IC50 [1] was no more than 1 nM, the AUC(0-inf) [2] was 0.0839 µM·h and the Cmax [2] was 36.9 nM. It also gave a half-life [2] of 59.4 min, an IC50 [3] of 0.06 nM and an IC50 [4] of 409 nM. The IC50 ([5]; CHO cells, whole-cell patch clamp, read-out: Potency IC50 (nM) Kv1.6) was greater than 3000 nM, the “Selectivity Kv1.6/Kv1.3” value ([5]; ratio IC50[Kv1.6]/IC50[Kv1.3]) was greater than 11300 and the IC50 [6] was 0.27 nM. The IC50 ([7]; CHO cells, whole-cell patch clamp, read-out: Potency IC50 (nM) Kv1.1) was greater than 3000 nM, the “Selectivity Kv1.1/Kv1.3” value ([7]; ratio IC50[Kv1.1]/IC50[Kv1.3]) was greater than 11300 and the IC50 [8] was 0.3 nM. The “% inhibition of ear thickness (AUC of Δ ear thickness 0-48 hours)” value ([9]; Exp #1, Kv1.3 blocker 70 nmol/kg SC 24 hrs prior to KLH challenge) was 38.8 (+/−9.7) %, the “% inhibition of ear thickness (AUC of Δ ear thickness 0-48 hours)” value ([9]; Exp #2, Kv1.3 blocker 70 nmol/kg SC 24 hrs prior to KLH challenge) was 25.0 (+/−12.5) % and the “% inhibition of ear thickness (AUC of Δ ear thickness 0-48 hours)” value ([9]; Exp #3, Kv1.3 blocker 50 nmol/kg SC 24 hrs prior to KLH challenge) was 37.3 (+/−13.8) %.
